Measurements published in patent US4714698A, “8-alkylthio-2-piperazino-pyrimido[5,4-d]-pyrimidines” (Dr. Karl Thomae GmbH, priority 1984, dated 1987).

Tests used:
[1] = target: phosphodiesterase from human thrombocytes; experiment: PDE inhibition (PDE assay), phosphodiesterase from human thrombocytes, 3H-cAMP substrate; format: biochemical; settings: concentration which inhibited PDE activity by 50%, 1 μmol/l 3H-cAMP as substrate, read-out: PDE inhibition ED50, Human thrombocytes
Experimental: Phosphodiesterase was obtained from human thrombocytes by an analogous method.
(§1) The PDE inhibition by the test substances was determined using 1 μmol/1 of ^3 H-cAMP as substrate. The PDE inhibition was determined by measuring the degradation of the substrate ^3 H-cAMP used into ^3 H-AMP by comparison with the control without the test substance. The ^3 H-AMP formed was separated from the remaining ^3 H-cAMP by precipitation with zinc sulphate-barium hydroxide.
(§2) The ED50, i.e. the concentration which inhibited the PDE activity by 50%, was calculated by linear regression analysis.

[2] = tested on: phosphodiesterase from B16 melanoma tissue (B16 tumour cells); experiment: PDE inhibition (PDE assay), phosphodiesterase from B16 melanoma tissue, 3H-cAMP substrate; format: biochemical, mice; settings: concentration which inhibited PDE activity by 50%, 1 μmol/l 3H-cAMP as substrate, read-out: PDE inhibition ED50, B16 tumour cells
Experimental: The phosphodiesterase was obtained from B16 melanoma tissue from mice by centrifuging the homogenised tissue at 5000×g (15 minutes at 4° C.). The tissues were homogenized by repeated freezing and thawing and homogenisation according to Potter-Elvehjem or by ultrasound. The homogenised supernatant containing the PDE was deep frozen and stored in batches at -25° C.
as §1, §2

[3] = Tolerability / lethality in mice; format: in vivo; settings: 10 animals
Source text: Moreover, the new compounds are well tolerated.

Row | IC50 [1] [µM] | IC50 [2] [µM] | Compound | deaths of animals ([3]; 20 mg/kg i.v.) | deaths of animals ([3]; 100 mg/kg p.o.)
1 | 1.3 | 0.037 | CCN(CC)c1nc(N2CCNCC2)nc2c(SC)ncnc12 [Substance B, 4-Diethylamino-8-methylthio-2-piperazino-pyrimido[5,4-d]pyrimidine] |  | 
2 | 1.7 | 0.028 | CSc1ncnc2c(N3CCCCCC3)nc(N3CCNCC3)nc12 [Substance D, 4-Hexamethyleneimino-8-methylthio-2-piperazinopyrimido[5,4-d]pyrimidine] |  | 
3 | 1.2 | 0.12 | CCCCCCNc1nc(N2CCNCC2)nc2c(SC)ncnc12 [Substance C, 4-n-Hexylamino-8-methylthio-2-piperazino-pyrimido[5,4-d]pyrimidine] |  | 

Row | Compound | IC50 [1] [µM] | IC50 [2] [µM] | deaths of animals ([3]; 20 mg/kg i.v.) | deaths of animals ([3]; 100 mg/kg p.o.)
4 | CSc1ncnc2c(N3CCCC3)nc(N3CCNCC3)nc12 [Substance A, 8-Methylthio-2-piperazino-4-pyrrolidino-pyrimido[5,4-d]pyrimidine] | 1.6 | 0.066 | none of the 10 animals used died | none of the 10 animals used died
